The values that follow come from patent US7186743B2, “Substituted pyrazolyl compounds for the treatment of inflammation” (Pharmacia Corporation, priority 2001, dated 2007).

This experiment deals with T1, IKK2 (Homo sapiens, UniProt O14920).
T1 construct: made in house; host or cells: insect cells (baculovirus, pFastBac; SF9)
T1 sequence (O14920 1-756): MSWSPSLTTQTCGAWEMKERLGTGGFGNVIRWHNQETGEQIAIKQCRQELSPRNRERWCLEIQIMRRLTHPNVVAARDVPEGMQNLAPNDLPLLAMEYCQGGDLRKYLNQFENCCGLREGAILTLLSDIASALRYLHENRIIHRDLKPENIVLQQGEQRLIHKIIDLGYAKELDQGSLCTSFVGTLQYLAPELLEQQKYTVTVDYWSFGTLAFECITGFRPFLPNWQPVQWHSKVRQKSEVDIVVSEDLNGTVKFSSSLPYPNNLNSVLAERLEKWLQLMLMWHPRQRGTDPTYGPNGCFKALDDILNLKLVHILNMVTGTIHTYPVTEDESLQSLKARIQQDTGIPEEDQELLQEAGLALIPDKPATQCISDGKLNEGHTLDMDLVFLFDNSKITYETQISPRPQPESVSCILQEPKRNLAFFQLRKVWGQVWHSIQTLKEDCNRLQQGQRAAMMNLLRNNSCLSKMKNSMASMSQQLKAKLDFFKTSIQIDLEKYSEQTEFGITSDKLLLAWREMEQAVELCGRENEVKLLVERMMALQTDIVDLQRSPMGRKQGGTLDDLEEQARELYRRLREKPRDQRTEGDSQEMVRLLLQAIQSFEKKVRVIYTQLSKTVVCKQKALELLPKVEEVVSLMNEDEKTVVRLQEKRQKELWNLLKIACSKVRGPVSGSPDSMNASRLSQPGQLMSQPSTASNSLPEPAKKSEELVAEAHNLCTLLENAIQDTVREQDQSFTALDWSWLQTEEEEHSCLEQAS
Description: IKKβ Resin Enzyme Assay (IKK2 resin). It counts as biochemical. The gist of the method: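 Radiometric test: [γ-33P]ATP incorporation into a biotinylated IκBα peptide, 30 min at 25° C, pH 7.6 Hepes with MgCl2/MnCl2 and 1 μM cold ATP. Reaction is quenched with Dowex resin and the supernatant is counted. Kinase is FLAG-purified homodimeric recombinant human IKK2 from insect cells.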

[1] abbreviates: Table 14, read-out: IKK2 Resin IC50.
[2] abbreviates: Table 2, read-out: IKK Resin IC50.
Where [3] appears, read: Table 3, read-out: IKK Resin IC50.
Setting [4] is: Table for Examples 381-385 (headed TABLE 14), read-out: IKK2 Resin IC50.
Setting [5] is: Table 4, read-out: IKK2 Resin IC50.
Where [6] appears, read: Table 15, read-out: IKK2 Resin IC50.
Where [7] appears, read: Table 18, read-out: IKK2 Resin IC50.

Where a name gives a salt, the structure may show the parent alone. Read-outs that look alike come from different tables or passages of the source.

What is called IC50 is the concentration at which inhibition is half-maximal. For `NC(=O)c1nn(-c2ccncc2)c2c1CCc1ccc(NC(=O)c3ccccc3Cl)cc1-2` [Example 338, 8-[(2-chlorobenzoyl)amino]-1-pyridin-4-yl-4,5-dihydro-1H-benzo[g]mdazole-3-carboxamide], the IC50 under setting [1] is ≤ 1000 nM. Consider `CS(=O)(=O)c1ccc(-n2nc(C(N)=O)c3c2-c2cc(NC(=O)c4ccccc4F)ccc2CC3)cc1` [Example 97, 8-[(2-fluorobenzoyl)amino]-1-[4-(methylsulfonyl)phenyl]-4,5-dihydro-1H-benzo[g]indazole-3-carboxamide], for which, under setting [2], the IC50 is ≤ 1000 nM. For the compound `NC(=O)c1nn(-c2ccc(F)cc2F)c2c1CCc1ccc(NC(=O)c3ccccc3Cl)cc1-2` [Example 353, 8-[(2-chlorobenzoyl)amino]-1-(2,4-difluorophenyl)-4,5-dihydro-1H-benzo[g]indazole-3-carboxamide], the IC50 under setting [1] is ≤ 1000 nM. As to `CS(=O)(=O)c1ccc(-n2nc(C(N)=O)c3c2-c2cc(NC(=O)c4cccc(Cl)c4F)ccc2CC3)cc1` [Example 104, 8-[(3-chloro-2-fluorobenzoyl)amino]-1-[4-(methylsulfonyl)phenyl]-4,5-dihydro-1H-benza[g]indazole-3-carboxamide], the IC50 under setting [2] was ≤ 1000 nM.

As for `Cc1ccc([N+](=O)[O-])c(C(=O)Nc2ccc3c(c2)-c2c(c(C(N)=O)nn2-c2ccc(S(C)(=O)=O)cc2)CC3)c1` [Example 153], under setting [3], the IC50 was ≤ 1000 nM. For the compound `NC(=O)c1nn(-c2ccc(N)nc2)c2c1CCc1ccc(NC(=O)c3ccncc3Cl)cc1-2` [Example 381, 1-(6-aminopyridin-3-yl)-8-[(3-chloroisonicotinoyl)amino]-4,5-dihydro-1H-benzo[g]indazole-3-carboxamide], the IC50 under setting [4] was ≤ 1000 nM. Turning to `CS(=O)(=O)c1ccc(C(=O)Nc2ccc3c(c2)-c2c(c(C(N)=O)nn2-c2ccc4c(c2)OCO4)CC3)c(Cl)c1` [Example 163, 1-(1,3-benzodioxol-5-yl)-8-{[2-chloro-4-(methylsulfonyl)benzoyl]amino}-4,5-dihydro-1H-benzo[g]indazole-3-carboxamide], under setting [5], the IC50 is ≤ 1000 nM.

As for `NC(=O)c1nn(-c2cccc(N)c2)c2c1CCc1ccc(NC(=O)c3ccccc3Cl)cc1-2` [Example 375, 1-(3-aminophenyl)-8-[(2-chlorobenzoyl)amino]-4,5-dihydro-1H-benzo[g]indazole-3-carboxamide], the IC50 under setting [6] is ≤ 1000 nM. Consider `CC(C)S(=O)(=O)c1ccc(-n2nc(C(N)=O)c3c2-c2cc(NC(=O)c4ccccc4Cl)ccc2CC3)cc1` [Example 393, 8-[(2-chlorobenzoyl)amino]-1-[4-(isopropylsulfonyl)phenyl]-4,5-dihydro-1H-benzo[g]indazole-3-carboxamide], for which the IC50 under setting [7] is ≤ 1000 nM.

Take `NC(=O)c1nn(-c2ccc(OCCN3CCOCC3)cc2)c2c1CCc1ccc(NC(=O)c3ccccc3Cl)cc1-2` [Example 264, 8-[(2-chlorobenzoyl)amino]-1-[4-(2-morpholin-4-ylethoxy)phenyl]-4,5-dihydro-1H-benzo[g]indazole-3-carboxamide]: the IC50 (Table 9, read-out: IKK2 Resin IC50) was ≤ 1000 nM.

With `NC(=O)c1nn(-c2ccc3c(c2)OCO3)c2c1CCc1ccc(NC(=O)CNC3CCC3)cc1-2` [Example 445, 1-(1,3-benzodioxol-5-yl)-8-[(N-cyclobutylglycyl)amino]-4,5-dihydro-1H-benzo[g]indazole-3-carboxamidehydrochloride], the IC50 (Table 23, read-out: IKK2 Resin IC50) was ≤ 1000 nM. Turning to `COc1cc(Cl)c(C(=O)Nc2ccc3c(c2)-c2c(c(C(N)=O)nn2-c2ccc(S(C)(=O)=O)cc2)CC3)cc1OC` [Example 131, 8-[(2-chloro-4,5-dimethoxybenzoyl)amino]-1-[4-(methylsulfonyl)phenyl]-4,5-dihydro-1H-benzo[g]indazole-3-carboxamide], the IC50 under setting [3] was ≤ 1000 nM.

Regarding `NC(=O)c1nn(-c2ccc(N)cc2)c2c1CCc1ccc(NC(=O)c3ccccc3Cl)cc1-2` [Example 370, 1-(4-aminophenyl)-8-[(2-chlorobenzoyl)amino]-4,5-dihydro-1H-benzo[g]indazole-3-carboxamide], the IC50 under setting [6] was ≤ 1000 nM. `CC(C)(O)/C=C/c1ccc(-n2nc(C(N)=O)c3c2-c2cc(NC(=O)c4ccccc4Cl)ccc2CC3)cc1` [Example 289, 8-[(2-chlorobenzoyl)amino]-1-{4-[(1E)-3-hydroxy-3-methylbut-1-enyl]phenyl}-4,5-dihydro-1H-benzo[g]indazole-3-carboxamide]: the IC50 (Table 11, read-out: IKK2 Resin IC50) is ≤ 1000 nM. For `CSc1ccc(Cl)c(C(=O)Nc2ccc3c(c2)-c2c(c(C(N)=O)nn2-c2ccc(S(C)(=O)=O)cc2)CC3)c1` [Example 137, 8-{[2-chloro-5-(methylthio)benzoyl]amino}-1-[4-(methylsulfonyl)phenyl]-4,5-dihydro-1H-benzo[g]indazole-3-carboxamide], the IC50 under setting [3] is ≤ 1000 nM.

Take `NC(=O)c1nn(-c2cccs2)c2c1CCc1ccc(NC(=O)c3ccncc3Cl)cc1-2` [Example 382, 8-[(3-chloroisonicotinoyl)amino]-1-thien-2-yl-4,5-dihydro-1H-benzo[g]indazole-3-carboxamide]: the concentration for half-maximal inhibition (IC50) under setting [4] is ≤ 1000 nM. As for `CS(=O)(=O)c1ccc(-n2nc(C(N)=O)c3c2-c2cc(NC(=O)c4cccc([N+](=O)[O-])c4Cl)ccc2CC3)cc1` [Example 135, 8-[(2-chloro-3-nitrobenzoyl)amino]-1-[4-(methylsulfonyl)phenyl]-4,5-dihydro-1H-benzo[g]indazole-3-carboxamide], the IC50 under setting [3] was ≤ 1000 nM. Regarding `CCS(=O)(=O)c1ccc(-n2nc(C(N)=O)c3c2-c2cc(NC(=O)c4ccccc4Cl)ccc2CC3)cc1` [Example 395, 8-[(2-chlorobenzoyl)amino]-1-[4-(ethylsulfonyl)phenyl]-4,5-dihydro-1H-benzo[g]indazole-3-carboxamide], under setting [7], the 50% inhibitory concentration (IC50) was ≤ 1000 nM. As for `CS(=O)(=O)c1ccc(-n2nc(C(N)=O)c3c2-c2cc(NC(=O)c4ccc(Cl)c(N)c4)ccc2CC3)cc1` [Example 113, 8-[(3-amino-4-chlorobenzoyl)amino]-1-[4-(methylsulfonyl)phenyl]-4,5-dihydro-1H-benzo[g]indazole-3-carboxamide], under setting [2], the IC50 was ≤ 1000 nM. On to `NC(=O)c1nn(-c2ccc3c(c2)OCO3)c2c1CCc1ccc(NC(=O)c3ccc([N+](=O)[O-])cc3Cl)cc1-2` [Example 184, 1-(1,3-benzodiaxol-5-yl)-8-[(2-chloro-4-nitrobenzoyl)amino]-4,5-dihydro-1H-benzo[g]indazole-3-carboxamide], for which the IC50 under setting [5] is ≤ 1000 nM. Consider `CS(=O)(=O)c1ccc(-n2nc(C(N)=O)c3c2-c2cc(NC(=O)c4cccc(F)c4F)ccc2CC3)cc1` [Example 101, 8-[(2,3-difluorobenzoyl)amino]-1-[4-(methylsulfonyl)phenyl]-4,5-dihydro-1H-benzo[g]mdazole-3-carboxamide], for which, under setting [2], the IC50 is ≤ 1000 nM. Regarding `CSc1ccc(Cl)c(C(=O)Nc2ccc3c(c2)-c2c(c(C(N)=O)nn2-c2ccc4c(c2)OCO4)CC3)c1` [Example 190, 1-(1,3-benzodioxol-5-yl)-8-{2-chloro-5-[2-(methylthio)benzoyl]amino}-4,5-dihydro-1H-benzo[g]indazole-3-carboxamide], the IC50 under setting [5] is ≤ 1000 nM. For the compound `CS(=O)(=O)c1ccc(-n2nc(C(N)=O)c3c2-c2cc(NC(=O)c4ccccc4)ccc2CC3)cc1` [Example 140, 8-(benzoylamino)-1-[4-(methylsulfonyl)phenyl]-4,5-dihydro-1H-benzo[g]indazole-3-carboxamide], the half-maximal inhibitory concentration (IC50) under setting [3] is ≤ 1000 nM. The same measure, in the same setting: the figure for `CS(=O)(=O)c1ccc(-n2nc(C(N)=O)c3c2-c2cc(NC(=O)c4ccc(Cl)cc4[N+](=O)[O-])ccc2CC3)cc1` [Example 132, 8-[(4-chloro-2-nitrobenzoyl)amino]-1-[4-(methylsulfonyl)phenyl]-4,5-dihydro-1H-benzo[g]indazole-3-carboxamide] is ≤ 1000 nM. Take `NC(=O)c1nn(-c2cccc(F)c2)c2c1CCc1ccc(NC(=O)c3cccnc3Cl)cc1-2` [Example 345, 8-{[(2-chloropyridin-3-yl)carbonyl]amino}-1-(3-fluorophenyl)-4,5-dihydro-1H-benzo[g]indazole-3-carboxamide]: under setting [1], the IC50 is ≤ 1000 nM.

Turning to `NC(=O)c1nn(-c2ccc3c(c2)OCO3)c2c1CCc1ccc(NC(=O)c3ccccc3Br)cc1-2` [Example 177, 1-(1,3-benzodioxol-5-yl)-8-[(2-bromobenzoyl)amino]-4,5-dihydro-1H-benzo[g]indazole-3-carboxamide], the IC50 under setting [5] was ≤ 1000 nM.

Consider `CS(=O)(=O)c1ccc(-n2nc(C(N)=O)c3c2-c2cc(NC(=O)c4cc(Cl)cnc4Cl)ccc2CC3)cc1` [Example 123, 8-{[(2,5-dichloropyridin-3-yl)carbonyl]amino}-1-[4-(methylsulfonyl)phenyl]-4,5-dihydro-1H-benzo[g]indazole-3-carboxamide], for which, under setting [2], the 50% inhibitory concentration (IC50) is ≤ 1000 nM.
